The values that follow come from patent publication US20240115729A1, “COMPOSITIONS AND METHODS FOR TARGETED ANTIFIBROTIC THERAPY IN CHRONIC PANCREATITIS” (University of Virginia Patent Foundation, priority 2021, published 2024).

Several values for one entry are separate records, joined by “and”; a condition that tells them apart may be missing. Equal values may be shown once.

One assay has as its target CD31 (mouse) (UniProt Q08481). The assay can be described thus: IF colocalization (JACoP) of VT680 phage with marker, CP mouse pancreas sections.
Sequence of UniProt Q08481 (Q08481 18-727): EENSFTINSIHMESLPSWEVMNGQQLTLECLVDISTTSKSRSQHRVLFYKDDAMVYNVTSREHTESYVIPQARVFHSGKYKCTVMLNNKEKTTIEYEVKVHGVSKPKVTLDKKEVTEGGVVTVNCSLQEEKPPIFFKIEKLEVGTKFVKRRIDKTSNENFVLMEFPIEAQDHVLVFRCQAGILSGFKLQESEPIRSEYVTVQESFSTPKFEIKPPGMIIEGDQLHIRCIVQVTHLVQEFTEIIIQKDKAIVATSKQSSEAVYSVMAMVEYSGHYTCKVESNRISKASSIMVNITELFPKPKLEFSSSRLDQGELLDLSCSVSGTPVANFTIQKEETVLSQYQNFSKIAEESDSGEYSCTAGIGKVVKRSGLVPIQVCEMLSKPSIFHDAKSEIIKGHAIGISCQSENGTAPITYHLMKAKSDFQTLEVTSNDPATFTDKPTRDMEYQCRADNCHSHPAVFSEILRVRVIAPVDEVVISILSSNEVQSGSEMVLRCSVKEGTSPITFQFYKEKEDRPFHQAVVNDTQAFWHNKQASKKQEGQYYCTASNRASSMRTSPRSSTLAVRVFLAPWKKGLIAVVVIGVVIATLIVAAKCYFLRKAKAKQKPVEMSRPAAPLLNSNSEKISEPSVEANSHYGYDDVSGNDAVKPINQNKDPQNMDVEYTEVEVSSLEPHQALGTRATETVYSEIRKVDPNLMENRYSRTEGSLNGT
In the next assay the target is F4/80 (mouse) (UniProt Q61549). The description is as above.
Sequence of UniProt Q61549 (Q61549 28-931): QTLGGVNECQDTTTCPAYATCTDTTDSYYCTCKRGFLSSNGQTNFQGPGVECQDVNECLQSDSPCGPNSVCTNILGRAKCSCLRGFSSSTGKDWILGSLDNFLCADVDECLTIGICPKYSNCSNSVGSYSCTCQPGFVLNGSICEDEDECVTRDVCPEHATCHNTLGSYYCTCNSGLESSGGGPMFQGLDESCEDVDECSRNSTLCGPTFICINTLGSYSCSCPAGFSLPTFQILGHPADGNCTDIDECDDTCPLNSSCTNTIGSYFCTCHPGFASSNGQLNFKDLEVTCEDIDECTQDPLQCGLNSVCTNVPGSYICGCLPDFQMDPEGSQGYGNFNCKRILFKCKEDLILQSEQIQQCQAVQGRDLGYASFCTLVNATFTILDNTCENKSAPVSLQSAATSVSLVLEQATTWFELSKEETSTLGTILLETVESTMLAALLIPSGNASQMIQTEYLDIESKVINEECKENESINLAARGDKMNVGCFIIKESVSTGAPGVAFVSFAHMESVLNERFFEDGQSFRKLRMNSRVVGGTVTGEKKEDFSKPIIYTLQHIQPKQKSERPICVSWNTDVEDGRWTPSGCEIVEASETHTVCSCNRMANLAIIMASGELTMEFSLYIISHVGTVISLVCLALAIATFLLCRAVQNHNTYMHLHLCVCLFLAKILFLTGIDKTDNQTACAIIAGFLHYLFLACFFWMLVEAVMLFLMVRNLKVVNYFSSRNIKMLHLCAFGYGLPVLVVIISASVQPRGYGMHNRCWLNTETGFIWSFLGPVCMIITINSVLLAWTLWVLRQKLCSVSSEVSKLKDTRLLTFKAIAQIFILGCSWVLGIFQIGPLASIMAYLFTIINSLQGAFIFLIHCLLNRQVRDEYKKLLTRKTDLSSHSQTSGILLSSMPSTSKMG
Assay [1] deals with carboxypeptidase A1 (CPA1) (mouse) (UniProt Q7TPZ8). Described as above.
Sequence of UniProt Q7TPZ8 (Q7TPZ8 111-419): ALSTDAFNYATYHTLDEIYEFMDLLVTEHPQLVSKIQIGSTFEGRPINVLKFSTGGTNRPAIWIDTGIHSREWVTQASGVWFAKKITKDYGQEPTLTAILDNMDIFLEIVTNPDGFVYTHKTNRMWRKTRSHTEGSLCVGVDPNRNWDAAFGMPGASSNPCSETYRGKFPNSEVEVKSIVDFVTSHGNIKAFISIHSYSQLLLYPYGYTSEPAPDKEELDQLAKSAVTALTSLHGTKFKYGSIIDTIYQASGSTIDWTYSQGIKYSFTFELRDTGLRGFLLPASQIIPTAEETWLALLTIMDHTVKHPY
In assay [2] the target is cytokeratin 7 (CK-7) (mouse) (UniProt Q9DCV7). Described as above.
Sequence of UniProt Q9DCV7 (Q9DCV7 2-457): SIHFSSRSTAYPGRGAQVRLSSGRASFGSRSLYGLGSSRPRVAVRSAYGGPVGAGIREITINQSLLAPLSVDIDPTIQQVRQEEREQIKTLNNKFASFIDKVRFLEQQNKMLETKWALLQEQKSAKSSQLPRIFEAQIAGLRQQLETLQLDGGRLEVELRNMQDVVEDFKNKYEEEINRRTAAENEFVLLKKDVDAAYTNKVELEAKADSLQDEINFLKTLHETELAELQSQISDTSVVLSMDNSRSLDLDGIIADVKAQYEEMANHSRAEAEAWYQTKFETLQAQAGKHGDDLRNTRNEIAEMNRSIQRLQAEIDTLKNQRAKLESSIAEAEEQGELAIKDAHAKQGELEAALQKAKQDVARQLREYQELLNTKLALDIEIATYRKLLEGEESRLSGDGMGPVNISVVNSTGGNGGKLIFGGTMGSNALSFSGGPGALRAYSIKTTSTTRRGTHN
Assay [3] deals with caerulein-induced CP mice (inflamed pancreas) versus healthy mice. Put plainly: In vivo validation of individual phage clones: ex vivo IVIS fluorescence of organs after co-injection of targeting phage (VT680) and wild type M13Ke phage (VT750). Also noted: species or system mouse (C57BL/6J). Particulars: for CP-to-Healthy Ratio (fold change of specificity ratio): Pancreas; for specificity for CP over healthy pancreas: individual clones from Groups 2 and 3. Here is the method: C57BL/6 J mice (6-12 week-old, female) were used for the in vivo phage screening. For chronic pancreatitis, caerulein (Bachem, Torrance, California, United States of America) was dissolved in sterile saline and administrated to mice twice a day, 8 hours apart for 14 consecutive days, at a concentration of 250 μg/kg body weight via intraperitoneal injection (Halbrook et al., 2017), as shown in FIG. 1A. During the 14-day course, intraperitoneal injections of 100 μg/kg buprenorphine were given every 3 days to minimize the induced pain. For healthy controls, c57BL/6 J mice were injected intraperitoneally with an equal volume of sterile saline following the same schedule as in the chronic pancreatitis models. […] Picrosirius red (Polysciences, Inc., Warrington, Pennsylvania, United States of America) was used to visualize collagen in paraffin-embedded pancreas sections (FIG. 1B).
Specificity of phage clones. After PHASTpep analysis and candidate clone selections, 18 candidate clones were grouped (4-5 clones per group, 4 groups total) based on sequence similarity using GibbsCluster Server 2.0 (Andreatta et al., 2017). by the Technical University of Denmark (FIG. 2). […] For each group, the fluorescently labeled candidate and WT phage were mixed and co-injected in CP and healthy mice (n=5) Phage accumulation was determined by measuring the ex vivo fluorescent intensity of the pancreas at 20 hours post-injection using the Fluorescent Molecular Tomography (FMT, PerkinElmer, Waltham, Massachusetts, United States of America) using the excitation and emission wavelength at 675 nm/720 nm for VT680 and 745 nm/800 nm for VT750. To account for variations of fluorescent labeling efficiency, the raw readouts of VT680 and VT750 were normalized to the dye-per-phage ratio (see Table 3 below).
The specificity ratio was calculated as % ID/g of the normalized VT680 divided by the % ID/g of the normalized VT750 (see Equation (1)). Quantifications are included in Table 4.
A similar procedure was applied to determine the specificity of individual phage clones in Groups 2 and 3. Candidate clones were labeled with VivioTag 680 (VT680, PerkinElmer, Waltham, MA) to match the detectable wavelength of the IVIS Spectrum Series (Perkin Elmer, Waltham, Massachusetts, United States of America). Fluorescent intensity was measured at 20 hours post-injection of candidate phage (VT680) and WT phage (VT750). Fold change of specificity ratio was calculated as the specificity ratio of CP mice divided by the specificity ratio of the healthy mouse (see Table 5).

The next assay relates to CD31 (endothelium). The assay can be described thus: Immunofluorescence colocalization (MCC) of VT680-labeled phage with cell marker in CP pancreas. Type of assay: in vivo, mouse. Particulars: CP pancreas sections. From the text: (§1) Immunofluorescence (IF). Post ex vivo imaging, mouse pancreata were submerged in Neg-50 Frozen Section Medium (Thermo Scientific, Waltham, Massachusetts, United States of America) and snap-frozen over liquid nitrogen vapor. The embedded tissues were cut into 5 μm sections using a cryostat (Leica Microsystems Inc., Buffalo Grove, Illinois, United States of America) for subsequent imaging with ZEISS LSM-880 Confocal Laser Scanning Microscope (Carl Zeiss Meditec, Inc., Jena, Germany) at the Advanced Microscopy Facility at the University of Virginia. Cell types of interest in the pancreatitis microenvironment were identified by immunohistochemistry using the following antibodies: rat anti-mouse CD31 at 1:200 dilution (endothelial markers; BD Biosciences, San Jose, California, United States of America), rat anti-mouse CD206 at 1:1000 dilution (M2 macrophage markers; Bio-Rad, Hercules, California, United States of America), rabbit anti-mouse cytokeratin 7 at 1:3000 dilution (CK-7, epithelial markers; Abcam, Cambridge, Massachusetts, United States of America), rabbit anti-mouse collagen IIIa at 1:200 dilution (ECM markers; Abcam, Cambridge, Massachusetts, United States of America), goat anti-mouse carboxypeptidase A1 at 1:200 dilution (CPA1, acini markers; R&D Systems, Inc., Minneapolis, Minnesota, United States of America), rat anti-mouse F4/80 at 1:500 (macrophage markers; Bio-Rad, Hercules, California, United States of America), and FITC-conjugated, mouse anti-mouse α-SMA at 1:200 dilution (MilliporeSigma, St. Louis, Missouri, United States of America). ALEXA FLUOR® 488 (Abcam, Cambridge, Massachusetts, United States of America) antibodies from appropriate species, including donkey anti-goat, donkey anti-rat, donkey anti-rabbit at 1:500 dilution, were used as secondary antibodies to locate the primary antibodies. IF-stained pancreatic sections were mounted with PROLONG™ Gold Antifade Mountant with DAPI (Thermo Fisher Scientific Inc, Waltham, Massachusetts, United States of America, United States of America) for nucleus visualization. IF images were taken on Ziess LSM 880 Confocal Microscope (ZIESS, Oberkochen, Germany) at the Advanced Microscopy Facility at the University of Virginia.
(§2) To identify the cell types that the CP targeting clones were binding, immunofluorescent analysis was performed on common cellular components in the CP microenvironment in the inflamed pancreas sections following in vivo validation of individual clones (FIG. 7). Mander's correlation coefficient (MCC) analysis was performed to determine colocalization of the targeting phage to the cell markers.

A further assay has as its system CK7 (epithelium). The assay is described as above. Format: in vivo, mouse. Particulars: CP pancreas sections.
Description: as §1, §2

Assay [4] concerns CPA-1+ cells (acinar cells). The description is as above. Type of assay: in vivo, mouse. Particulars: CP pancreas sections.
Description: as §1, §2

Assay [5] deals with F4/80+ cells (macrophages). Described as above. Particulars: CP pancreas sections. Type of assay: in vivo, mouse.
Description: as §1, §2

Assay [6] has as its system collagen IIIa+ cells (ECM). The description is as above. Particulars: Col IIIa; CP pancreas sections. Format: in vivo, mouse.
Description: as §1, §2

The subject of assay [7] is αSMA+ cells (activated PSC). The description is as above. Type of assay: in vivo, mouse. Particulars: CP pancreas sections.
Description: as §1, §2

The subject of assay [8] is cellular components in the CP microenvironment. The assay can be described thus: Cellular selectivity of phage clones: one-way ANOVA and Tukey-Kramer comparison of MCC of all cell markers. Type of assay: in vivo, mouse. Particulars: for Cell type the phage clone shows specificity to / Marker the phage clone shows specificity to: CP microenvironment; for Colocalized Markers (p < 0.05) / Corresponding Cellular Components: statistically significant selectivity for a single cellular component in CP.
Description: as §1
Statistical analysis. Statistical analysis of the data was performed by student t-test, one-way analysis of variance (ANOVA), and Tukey-Kramer test. All data presented are expressed as mean+standard error of at least three independent measurements. For all comparisons, p-values<0.05 were considered significant.
as §2

Turning to “MDLSLKP (SEQ ID NO: 19) phage clone (peptide)”, the mean Manders' correlation coefficient (MCC), fraction of phage overlapping cell marker in the assay with CD31 (mouse) turned out to be 0.2; with F4/80 (mouse), 0.46; in assay [1], 0.31; in assay [2] it was 0.06.

As to MDLSLKP (displayed on phage), the “Radiant efficiency Targeting:M13Ke” value stood at 0.72 in assay [3] (CP mouse, liver); 10.85 in [3] (CP mouse, pancreas); 2.70 in [3] (CP mouse, spleen); 0.52 in [3] (healthy mouse, liver); 5.79 in [3] (healthy mouse, pancreas); 2.34 in [3] (healthy mouse, spleen). In addition, the “CP-to-Healthy Ratio” value came to 1.370 in [3] (Liver) and 1.156 in assay [3] (Spleen). Moreover, the “CP-to-Healthy Ratio (fold change of specificity ratio)” value in assay [3] is 1.875. The “specificity for CP over healthy pancreas” value in assay [3] is “increased specificity for CP over healthy pancreas”. Also, the “Mean Manders' Correlation Coefficient (MCC), fraction of phage overlapping cell marker” value in the assay on CD31 (endothelium) was 0.20; in the assay with CK7 (epithelium) it was 0.06; in assay [4] it was 0.31; in assay [5] it was 0.46; in assay [6], 0.828±0.089 and 0.83; in [7], 0.16. The “Cell type the phage clone shows specificity to” value in [8] is reported as “ECM”. Moreover, the “Marker the phage clone shows specificity to” value in assay [8] was “Collagen”. The “Colocalized Markers (p < 0.05)” value in assay [8] is on record as “Collagen”. Moreover, the “Corresponding Cellular Components” value in assay [8] is reported as “ECM”.

For MNSIAIP (displayed on phage), the “Radiant efficiency Targeting:M13Ke” value is recorded as 0.61 in [3] (CP mouse, liver); 9.81 in assay [3] (CP mouse, pancreas); 3.61 in [3] (CP mouse, spleen); 0.53 in assay [3] (healthy mouse, liver); 5.04 in [3] (healthy mouse, pancreas); 4.36 in assay [3] (healthy mouse, spleen). Moreover, the entries for the “CP-to-Healthy Ratio” value in assay [3] (Liver) and in assay [3] (Spleen) were 1.144 and 0.829, respectively. For the same substance, the “CP-to-Healthy Ratio (fold change of specificity ratio)” value in [3] is reported as 1.945. Further, in assay [3], the “specificity for CP over healthy pancreas” value was “increased specificity for CP over healthy pancreas”. Also, the “Mean Manders' Correlation Coefficient (MCC), fraction of phage overlapping cell marker” value is 0.24 with CD31 (endothelium); 0.05 in the assay with CK7 (epithelium); 0.633±0.179 and 0.63 in [4]; 0.37 in assay [5]; 0.34 in [6]; 0.07 in assay [7]. For the same substance, in assay [8], the “Cell type the phage clone shows specificity to” value is “Acinar cells”. For the same substance, in assay [8], the “Marker the phage clone shows specificity to” value is listed as “CPA1^+”. The “Colocalized Markers (p < 0.05)” value in assay [8] is reported as “CPA-1”. Also, in assay [8], the “Corresponding Cellular Components” value is listed as “Acinar cells”.

Turning to SLTNSSF (displayed on phage), the “Radiant efficiency Targeting:M13Ke” value is 1.33 in assay [3] (CP mouse, liver); 8.86 in assay [3] (CP mouse, pancreas); 2.65 in assay [3] (CP mouse, spleen); 1.06 in assay [3] (healthy mouse, liver); 1.62 in assay [3] (healthy mouse, pancreas); 2.69 in assay [3] (healthy mouse, spleen). In addition, the “CP-to-Healthy Ratio” value in [3] (Liver) amounted to 1.248; in assay [3] (Spleen), 0.985. The “CP-to-Healthy Ratio (fold change of specificity ratio)” value in assay [3] stood at 5.469. Besides, the “specificity for CP over healthy pancreas” value in [3] was “increased specificity for CP over healthy pancreas”. In addition, the “Mean Manders' Correlation Coefficient (MCC), fraction of phage overlapping cell marker” value is 0.13 in the assay with CD31 (endothelium); 0.11 with CK7 (epithelium); 0.22 in assay [4]; 0.804±0.090 and 0.80 in assay [5]; 0.33 in assay [6]; 0.06 in assay [7]. Also, in [8], the “Cell type the phage clone shows specificity to” value was “Macrophage”. The “Corresponding Cellular Components” value in [8] is recorded as “Macrophage”.

As for SNSQDLH (displayed on phage), the “Radiant efficiency Targeting:M13Ke” value in assay [3] (CP mouse, liver) amounted to 0.73; in assay [3] (CP mouse, pancreas) it was 6.22; in assay [3] (CP mouse, spleen), 3.27; in assay [3] (healthy mouse, liver), 0.51; in assay [3] (healthy mouse, pancreas) it was 2.07; in assay [3] (healthy mouse, spleen), 3.11. Further, the “CP-to-Healthy Ratio” value in assay [3] (Liver) was 1.428; in assay [3] (Spleen), 0.165. For the same substance, the “CP-to-Healthy Ratio (fold change of specificity ratio)” value in [3] stood at 3.009. Also, in assay [3], the “specificity for CP over healthy pancreas” value is “increased specificity for CP over healthy pancreas”. Further, the “Mean Manders' Correlation Coefficient (MCC), fraction of phage overlapping cell marker” value in the assay on CD31 (endothelium) is 0.12; in the assay with CK7 (epithelium), 0.14; in assay [4] it was 0.23; in assay [5], 0.800±0.197 and 0.80; in assay [6], 0.33; in assay [7], 0.05. For the same substance, in [8], the “Cell type the phage clone shows specificity to” value is given as “Macrophage”. Further, the “Corresponding Cellular Components” value in assay [8] is “Macrophage”.
